This is an account of results in ChEMBL document CHEMBL3124844 (J Med Chem, 2014).

Experiment [1] can be described thus: Displacement of [3H]nisoxetine from Sprague-Dawley rat brain NET after 180 mins by liquid scintillation counting analysis. In kind it is tissue-based. A general note: In a radioligand displacement assay an active substance lowers the binding of a labelled ligand.
Experiment [2] concerns the target T1, Sodium-dependent dopamine transporter (Rattus norvegicus, UniProt P23977). The experiment in a line: Displacement of [3H]WIN35,428 from Sprague-Dawley rat brain DAT after 120 mins by liquid scintillation counting analysis. It counts as tissue-based.
Experiment [3] has as its target Sodium-dependent serotonin transporter (Rattus norvegicus, UniProt P31652). The experiment in a line: Displacement of [3H]citalopram from Sprague-Dawley rat brain SERT after 60 mins by liquid scintillation counting analysis. In kind it is tissue-based.
Experiment [4] addresses T1, Sodium-dependent dopamine transporter. The experiment in a line: Displacement of [3H]WIN35,428 from rat brain DAT. It counts as tissue-based.
The species entered for experiment [5] is Rattus norvegicus. The experiment in a line: Displacement of [3H]nisoxetine from Sprague-Dawley rat brain NET at 100 uM after 180 mins by liquid scintillation counting analysis relative to control. In kind it is tissue-based.
For experiment [6], the target named is Sodium-dependent serotonin transporter (Rattus norvegicus) (UniProt P31652). The experiment in a line: Displacement of [3H]citalopram from Sprague-Dawley rat brain SERT at 100 uM after 60 mins by liquid scintillation counting analysis relative to control. In kind it is tissue-based.
The species entered for experiment [7] is Rattus norvegicus. The experiment in a line: Selectivity ratio of Ki for Sprague-Dawley rat brain SERT to Ki for Sprague-Dawley rat brain DAT.

T1 sequence (P23977 whole entry): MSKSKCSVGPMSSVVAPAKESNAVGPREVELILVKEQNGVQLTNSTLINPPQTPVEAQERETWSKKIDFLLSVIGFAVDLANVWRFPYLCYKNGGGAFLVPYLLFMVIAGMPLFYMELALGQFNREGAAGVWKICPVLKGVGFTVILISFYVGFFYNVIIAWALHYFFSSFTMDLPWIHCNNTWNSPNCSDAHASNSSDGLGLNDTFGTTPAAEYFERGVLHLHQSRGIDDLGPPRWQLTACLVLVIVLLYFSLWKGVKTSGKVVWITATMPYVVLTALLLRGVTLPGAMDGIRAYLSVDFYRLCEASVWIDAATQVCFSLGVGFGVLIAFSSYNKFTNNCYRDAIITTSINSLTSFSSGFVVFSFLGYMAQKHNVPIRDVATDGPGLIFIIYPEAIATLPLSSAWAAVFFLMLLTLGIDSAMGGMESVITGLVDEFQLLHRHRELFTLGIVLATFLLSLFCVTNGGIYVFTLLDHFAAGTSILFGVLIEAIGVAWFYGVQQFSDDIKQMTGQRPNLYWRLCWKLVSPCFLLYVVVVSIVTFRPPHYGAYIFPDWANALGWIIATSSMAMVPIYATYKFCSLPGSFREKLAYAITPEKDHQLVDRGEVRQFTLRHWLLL
Sodium-dependent serotonin transporter (Rattus norvegicus), sequence (P31652 whole entry): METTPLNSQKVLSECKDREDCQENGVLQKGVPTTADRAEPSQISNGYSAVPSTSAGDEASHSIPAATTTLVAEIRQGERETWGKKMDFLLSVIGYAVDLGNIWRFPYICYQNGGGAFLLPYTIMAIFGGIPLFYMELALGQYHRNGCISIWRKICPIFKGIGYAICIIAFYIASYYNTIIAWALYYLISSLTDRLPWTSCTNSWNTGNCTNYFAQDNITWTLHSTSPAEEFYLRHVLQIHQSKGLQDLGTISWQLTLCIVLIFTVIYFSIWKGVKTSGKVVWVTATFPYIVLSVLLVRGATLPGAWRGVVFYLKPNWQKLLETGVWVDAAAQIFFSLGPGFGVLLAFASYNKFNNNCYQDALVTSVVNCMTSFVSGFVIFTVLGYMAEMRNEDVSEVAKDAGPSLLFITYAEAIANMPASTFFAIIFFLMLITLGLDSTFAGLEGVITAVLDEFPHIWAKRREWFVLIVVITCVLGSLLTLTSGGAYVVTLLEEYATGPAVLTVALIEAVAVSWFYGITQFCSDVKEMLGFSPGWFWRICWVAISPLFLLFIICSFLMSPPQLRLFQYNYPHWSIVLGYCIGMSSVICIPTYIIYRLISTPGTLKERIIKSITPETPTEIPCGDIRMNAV
Sodium-dependent serotonin transporter, sequence (P31652 whole entry): as above

A word on the Ki: it is a dissociation constant, usually derived from enzyme kinetics or from competition with a known ligand. Low readings indicate a stronger hold on the target, high ones a looser hold on the target. Take `CCCCNCCSC(c1ccccc1)c1ccccc1`: the Ki is 11.5 µM in experiment [1], 0.31 µM in experiment [2] and 5.7 µM in experiment [3].

With `CC(=O)N1[C@@H]2CC[C@H]1C[C@H](OC(c1ccc(F)cc1)c1ccc(F)cc1)C2`, in experiment [4], the affinity corresponds to a Ki of 2.34 µM.

For `CCCCNCC[S+]([O-])C(c1ccccc1)c1ccccc1` (stereo not given), the Ki in experiment [1] turned out to be 138 µM; in experiment [3] it was 63.6 µM.

The term inhibition denotes the change of the read-out against control, counted positive when it falls. A lower inhibition goes with a weak effect. As for `O=C(CSC(c1ccc(Br)cc1)c1ccc(Br)cc1)NCCCCc1ccccc1`, the inhibition (in the experiment filed under Rattus norvegicus [5]; in experiment [6]) was less than 50% throughout.

For the compound `O=C(CSC(c1ccc(Br)cc1)c1ccc(Br)cc1)NCCCc1ccccc1`, the Ki was 35.5 µM in experiment [1] and 0.238 µM in experiment [2].

Turning to `[O-][S+](CCNCCCc1ccccc1)C(c1ccc(Cl)cc1)c1ccc(Cl)cc1` (stereo not given), the Ki in experiment [1] amounted to 5.67 µM; in experiment [2], 0.645 µM; in experiment [3], 0.553 µM.

With `[O-][S+](CCNCCCc1ccccc1)C(c1ccc(Br)cc1)c1ccc(Br)cc1` (stereo not given), the Ki in experiment [1] is 8.65 µM; in experiment [2], 1.27 µM; in experiment [3], 0.557 µM.

In the case of `NC(=O)C[S+]([O-])C(c1cccc(F)c1)c1cccc(F)c1` (stereo not given), the inhibition (in the experiment listed under Rattus norvegicus [5]; in experiment [6]) was less than 50% throughout. The compound also had a Ki in experiment [2] of 5.93 µM.

`CNC(=O)CSC(c1ccccc1)c1ccccc1` registered a Ki in experiment [3] of 656 µM.

For the compound `O=C(CSC(c1ccc(F)cc1)c1ccc(F)cc1)NCC1CC1`, the Ki is 6.7 µM in experiment [2] and 34 µM in experiment [3].

On to `O=C(CSC(c1ccc(Br)cc1)c1ccc(Br)cc1)NCC1CC1`, for which the inhibition in the experiment filed under Rattus norvegicus [5] was less than 50%. Moreover, the Ki in experiment [2] worked out at 0.975 µM; in experiment [3] it was 7.03 µM.

As for `C=CCNC(=O)CSC(c1ccccc1)c1ccccc1`, the Ki in experiment [1] stood at 171 µM; in experiment [2], 8.37 µM; in experiment [3], 303 µM. In addition, the inhibition (in the experiment listed under Rattus norvegicus [5]; in experiment [6]) was less than 50% in each case.

Regarding `CNC(=O)C[S+]([O-])C(c1ccccc1)c1ccccc1` (stereo not given), the inhibition (in the experiment listed under Rattus norvegicus [5]; in experiment [6]) was less than 50% each time. The Ki in experiment [2] was found to be 13.1 µM.

In the experiment listed under Rattus norvegicus [5], `O=C(CSC(c1ccc(F)cc1)c1ccc(F)cc1)NCCCc1ccccc1` came in with an inhibition of less than 50%. Besides, the inhibition constant Ki in experiment [3] worked out at 3.5 µM.

As to `CCCNC(=O)CSC(c1ccc(Cl)cc1)c1ccc(Cl)cc1`, the Ki in experiment [3] was 10.1 µM.

For `O=C(CSC(c1ccccc1)c1ccccc1)NCC1CC1`, in the experiment filed under Rattus norvegicus [5], the inhibition is less than 50%. In addition, the Ki came to 13.6 µM in experiment [2] and 20.5 µM in experiment [3].

In turn, `O=C(C[S+]([O-])C(c1ccc(Br)cc1)c1ccc(Br)cc1)NCCCc1ccccc1` (stereo not given) yielded an inhibition in the experiment filed under Rattus norvegicus [5] of less than 50%. Further, in experiment [3], affinity was put at a Ki of 0.892 µM.

In experiment [1], `CCCNC(=O)CSC(c1ccc(Br)cc1)c1ccc(Br)cc1` returned a Ki of 10.6 µM. This lies in the double-digit micromolar range.

Compound `O=C(CSC(c1ccccc1)c1ccccc1)NCCCCc1ccccc1` registered an inhibition in experiment [6] of less than 50%.

In the case of `CNC(=O)CSC(c1ccc(Br)cc1)c1ccc(Br)cc1`, affinity in experiment [1] was put at a Ki of 11 µM.

In the case of `NC(=O)CSC(c1ccccc1)c1ccccc1`, the inhibition constant Ki in experiment [1] was found to be 285 µM. The inhibition in the experiment filed under Rattus norvegicus [5] is less than 50%.

For the compound `CCCNC(=O)CSC(c1ccccc1)c1ccccc1`, the Ki in experiment [1] was determined as 68 µM; in experiment [3], 419 µM. In experiment [6], this compound came in with an inhibition of less than 50%.

For `CCCNC(=O)CSC(c1ccc(F)cc1)c1ccc(F)cc1`, the Ki turned out to be 59.7 µM in experiment [1] and 44.2 µM in experiment [3].

For the compound `Cc1ccc(C(c2ccc(C)cc2)[S+]([O-])CC(N)=O)cc1` (stereo not given), the inhibition (in the experiment listed under Rattus norvegicus [5]; in experiment [6]) was less than 50% each time.

Regarding `NC(=O)CSC(c1cccc(Cl)c1)c1cccc(Cl)c1`, the values for the Ki in experiment [1] and in experiment [3] were 45.4 µM and 808 µM, respectively. This compound returned an inhibition in experiment [6] of less than 50%. The Ratio Ki in the experiment filed under Rattus norvegicus [7] was greater than 2900.

Regarding `NCCSC(c1ccccc1)c1ccccc1`, in experiment [3], affinity was put at a Ki of 0.221 µM. This counts as sub-micromolar.

In turn, `CNC(=O)CSC(c1ccc(Cl)cc1)c1ccc(Cl)cc1` had a Ki in experiment [3] of 10.7 µM.

As for `NC(=O)C[S+]([O-])C(c1cccc(Cl)c1)c1cccc(Cl)c1` (stereo not given), the inhibition (in the experiment listed under Rattus norvegicus [5]; in experiment [6]) was less than 50% throughout.

In the case of `c1ccc(CCCNCCSC(c2ccccc2)c2ccccc2)cc1`, the Ki is 5.5 µM in experiment [1] and 0.927 µM in experiment [3].

As for `NCC[S+]([O-])C(c1ccccc1)c1ccccc1` (stereo not given), the Ki in experiment [3] came out at 3.38 µM.

For the compound `[O-][S+](CCNCCCc1ccccc1)C(c1ccc(F)cc1)c1ccc(F)cc1` (stereo not given), the Ki in experiment [2] was found to be 0.183 µM; in experiment [3], 1.28 µM.

With `CCCCNC(=O)CSC(c1ccccc1)c1ccccc1`, the inhibition (in the experiment listed under Rattus norvegicus [5]; in experiment [6]) was less than 50% each time.

`NC(=O)C[S+]([O-])C(c1ccccc1)c1cccc(Br)c1` (racemic): the inhibition (in the experiment listed under Rattus norvegicus [5]; in experiment [6]) was less than 50% in each case.
